The results in this text go back to the METLIN SMRT retention time set (Domingo-Almenara et al. 2019).

The nature of this data set: gradient 5% acetonitrile 3 min, to 50% in 2 min, to 85% in 15 min, held 3 min, 100 µL/min. As to conditions: column: Zorbax Extend-C18 2.1 x 50 mm; eluents: water / acetonitrile, 0.1% formic acid. The procedure, abridged: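 Pure standards were analyzed in mixtures of ~100 molecules using HPLC coupled to a quadrupole time-of-flight mass spectrometer, in both positive and negative ionization mode. Separation used a Zorbax Extend-C18 column (2.1 × 50 mm, 1.8 μm) at 100 μL/min, with water and acetonitrile each containing 0.1% formic acid. Dead and dwell volumes were 40 μL and 900 μL, and data were collected over 3 months. Retention time was read from computationally picked adduct peaks, each inspected manually.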
The compound `COc1ccc(-c2noc(-c3nnn4c3COC(c3ccc(Cl)cc3)C4)n2)cc1F` (centres undefined) came in with an RP-LC retention time of 1230 s. The value for `CC(C)n1cnc(S(=O)(=O)N2CCC(C(=O)Nc3ccc4c(c3)OCCO4)CC2)c1` was 721 s. The compound `CCCNC(=O)C1CCN(c2ccc(SCC(=O)Nc3cc(F)cc(F)c3)nn2)CC1` returned an RP-LC retention time of 665 s. With `Cc1nc(-c2csc(S(=O)(=O)N3CCC(C(=O)NC(C)Cc4ccco4)CC3)c2)no1` (centres undefined), the RP-LC retention time was 843 s. As for `Cc1c(C(=O)Nc2ccnn2Cc2ccco2)oc2cc(Br)ccc12`, the figure is 1020 s.

Turning to `O=S(=O)(c1ccc2c(c1)CCCC2)N1CCN(c2ccc(-c3ccco3)nn2)CC1`, the RP-LC retention time came out at 903 s.

Compound `COc1cc(NC(=O)CCc2c(-c3ccc(Cl)cc3)nc3ccccn23)cc(OC)c1OC` gave an RP-LC retention time of 642 s. As for `O=C(CN1CCN(C(=O)COc2ccc(Cl)cc2Cl)CC1)c1cccs1`, the figure is 630 s; as for `Cc1ccc(-c2[nH]ncc2CN2CCn3c(nn(C)c3=O)C2)cc1C`, 638 s. The value for `O=C(Cn1cc(C(=O)C2CC2)c2ccccc21)NCc1ccc2c(c1)OCCCO2` was 831 s. The value for `COc1ccc(NC(=O)C2CC(=O)N(c3ccc4c(c3)CCN4C(C)=O)C2)cc1F` (centres undefined) was 687 s. Compound `Cc1ccc(C)c(Sc2cc(N3CCC(C(=O)NCCCOC(C)C)CC3)ncn2)c1` came in with an RP-LC retention time of 823 s. As for `CC(=O)c1cccc(NC(=O)Cn2nc3c(cc2=O)CN(C(C)=O)CC3)c1`, the figure is 601 s; as for `CCOc1ccccc1CN1C[C@@H]2C(=O)N(Cc3ccc4c(c3)OCO4)C(=O)[C@@H]2C1`, 727 s; as for `COc1ccc(NS(=O)(=O)c2cn(CC(C)C)c3ncccc23)cc1Cl`, 950 s. Regarding `COc1cccc2cc(C(=O)Nc3nc(-c4ccc(Cl)cc4)cs3)c(=O)oc12`, the RP-LC retention time stood at 1290 s.

In the case of `O=C(NCCC1CCN(C(=O)Nc2ccc(F)cc2F)CC1)C1CCC1`, the RP-LC retention time is 720 s. For the compound `CCNc1cc(-n2ccnc2)ncn1`, the RP-LC retention time is 541 s. `CCOC(=O)c1ccc(NC(=O)Cn2nc3n(c2=O)CCCCC3)cc1` returned an RP-LC retention time of 685 s.

For `CCCc1ccc(S(=O)(=O)N2CCC3(CC2)NCCCN=C3NC2CCCC2)cc1`, the RP-LC retention time came to 857 s. `COc1ccc(-c2nc(NC(=O)c3ccc(-c4nc5ccccc5s4)s3)sc2C)cc1` came in with an RP-LC retention time of 1400 s. As for `Cn1cnc(S(=O)(=O)N2CCC(c3noc(COCc4ccccc4)n3)C2)c1` (centres undefined), the figure is 761 s; as for `COc1cc(NC(=O)Cn2c(N3CCc4ccccc4C3)nc(C)cc2=O)cc(OC)c1OC`, 721 s. The value for `CCc1nc(OCC(=O)Nc2ccc(OC)cc2OC)c2ccccc2n1` was 788 s; that for `CN(C)C(=O)C1CCc2sc(C(=O)N3CCOCC3)cc2C1` (centres undefined) was 614 s. As for `Cc1nc2sccn2c(=O)c1NC(=O)Nc1ccc(C(C)C)cc1`, the figure is 704 s; as for `CC(C)CNC(=O)c1ccn[nH]1`, 604 s. The compound `CC(C)NC(=O)c1nnc(-c2ccc(S(=O)(=O)N3CCCCC3)cc2)o1` showed an RP-LC retention time of 851 s. `CCCCCC(=O)C(=O)c1ccc(O)cc1O` showed an RP-LC retention time of 819 s. As for `CC(C)n1cnc2c(-c3ccccc3)cn(CC(=O)NCc3ccco3)c2c1=O`, the figure is 592 s; as for `Cn1cc(S(=O)(=O)N2CCC(C(=O)N3CCc4ccccc4C3)CC2)cc1C(=O)N1CCCC1`, 782 s. The value for `COc1ccc(-n2nc(N3CCCC(C(=O)NCc4cccc(OC)c4)C3)ccc2=O)cc1` (centres undefined) was 763 s. For `Cc1ccccc1CNC(=O)C1CCN(S(=O)(=O)c2c(C)[nH]c(C)c2C(=O)N2CCCC2)CC1`, the RP-LC retention time was 727 s.

Regarding `CC1CCN(C(=O)C2CCN(c3cc(N4CCCCC4)ncn3)CC2)CC1`, the RP-LC retention time came out at 676 s. As to `CCNC(=O)C1CCCN(c2nc3ncn(CC(=O)Nc4cc(F)ccc4F)c(=O)c3s2)C1` (centres undefined), the RP-LC retention time turned out to be 685 s. `O=C(NC1CCCCC1)c1ccc2ncnc(N3CCCC3)c2c1`: the RP-LC retention time worked out at 636 s. As for `O=C(Nc1ccc(OCc2nnc(-c3ccc(F)cc3)o2)cc1)c1cccnc1`, the figure is 720 s; as for `Cc1ccc(NC(=O)N2CCCC2c2nc(-c3ccc(F)cc3F)no2)c(C)c1` (centres undefined), 1050 s; as for `CCCCc1ccc(N2C(=O)C3N=NN(Cc4nc(-c5ccc(Cl)cc5)no4)C3C2=O)cc1` (centres undefined), 1280 s. For the compound `CCOc1ccc(C(=O)N2CCCC2c2nc(-c3ccc(OC)cc3)no2)cc1OCC` (centres undefined), the RP-LC retention time was 982 s. As for `COc1ccc(-c2nc(CNC(=O)Cn3cnc(-c4cccs4)cc3=O)cs2)cc1`, the figure is 746 s; as for `CCN(CC)CCNC(=O)Cn1c(-c2ccccn2)nc2ccccc21`, 571 s; as for `COC(=O)c1c(-c2cccc(F)c2)noc1NCCN1CCCC1`, 640 s. As for `COc1ccccc1-c1nc(Cc2noc(-c3ccccc3)n2)c(C)o1`, the figure is 1040 s; as for `Cn1cccc1C(=O)Nc1cnn(-c2ncc(N3CCCCC3)cn2)c1`, 819 s.

For the compound `COc1ccc(C(=O)N2CCC3(CC2)N=C(c2ccc(Br)cc2)C(=O)N3)cc1`, the RP-LC retention time came out at 889 s. `Cc1ccc(C)c(NC(=O)C2CCN(S(=O)(=O)c3ccc4c(c3)CCCC(=O)N4)CC2)c1`: the RP-LC retention time was 768 s. The value for `O=C(NC1CCCCCC1)C1CCCN(c2ncnc3c2nc2n3CCCCC2)C1` (centres undefined) was 816 s; that for `CN(C)CCNc1ccc(-c2nc(-c3ccc(F)cc3)no2)cn1` was 668 s; that for `Cc1sc(NC(=O)c2cccs2)nc1-c1ccc2c(c1)NC(=O)C(C)O2` (centres undefined) was 883 s. The value for `CCOC(=O)c1cc(C)nc2c1c(=O)n(Cc1cccc(C(F)(F)F)c1)c(=O)n2C` was 1150 s. As for `COc1ccc(C2(C(=O)NCC34CCCC=C3NC(=O)CC4)CC2)cc1` (centres undefined), the figure is 776 s; as for `CC1(C)CC(=O)c2cn(-c3ccccc3)c(=O)c(C(=O)Nc3ccc(F)cc3F)c2C1`, 1090 s; as for `Cc1csc(-c2ccc(CNC(=O)c3ccnn3C)cc2)n1`, 772 s. `COc1ccc(OC)c(NC(=O)c2ccc(-n3cnc(NC(=O)C4CC4)c3)cc2)c1` registered an RP-LC retention time of 752 s. As for `Cc1cccc(-c2nc3ccccn3c2NC(=O)NCc2ccc(F)cc2)c1`, the figure is 714 s; as for `CCc1sc(NC(=O)Cc2csc(C)n2)nc1-c1ccc(Br)cc1`, 1080 s; as for `O=C(CSc1nnc2sc3ccccc3n12)N1CCOCC1`, 614 s. With `Cc1ccc(CNC(=O)C2CCN(S(=O)(=O)c3ccc4c(c3)sc(=O)n4C)CC2)cc1`, the RP-LC retention time came to 862 s.
